{
  "source": "patent US7060463B2",
  "about": "(priority 2001, dated 2006)",
  "origin": "cited, not measured here",
  "target": "GST-Flag-rhARLBD (Macaca mulatta, UniProt Q6QT55)",
  "sequence (Q6QT55 601-895)": "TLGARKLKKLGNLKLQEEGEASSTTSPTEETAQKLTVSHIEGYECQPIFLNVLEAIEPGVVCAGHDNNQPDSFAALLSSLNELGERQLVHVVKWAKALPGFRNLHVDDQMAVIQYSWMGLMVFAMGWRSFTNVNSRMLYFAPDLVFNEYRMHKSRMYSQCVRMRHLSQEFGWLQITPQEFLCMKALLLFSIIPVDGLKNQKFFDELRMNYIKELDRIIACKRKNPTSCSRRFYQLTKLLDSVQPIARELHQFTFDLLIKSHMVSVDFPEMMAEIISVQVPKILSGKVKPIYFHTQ",
  "data": [
    {"smiles": "C[C@]1(O)CC[C@H]2[C@@H]3CCC4=CC(=O)CCC4=C3C=C[C@@]21C", "note": "[R1881, 17b-hydroxy-17-methylestra-4,9,11-trien-3-one]", "values": [
      {"measurement": "IC50", "value": "~1", "unit": "nM"}
    ]}
  ]
}
